Source: patent EP3828160A1, “TREPROSTINIL DERIVATIVE COMPOUNDS AND METHODS OF USING SAME” (Corsair Pharma, Inc., priority 2014, dated 2016)

Columns and labels:
Assay type in all cases: in vitro ADME
[1] = Human plasma stability assay (Test 2); conditions: 0.5 uM test compound, 37°C, up to 120 minutes, heparinated human plasma, read-out: Test 2 T1/2
Protocol: (§1) Four assays on compounds were carried out by the following methods with the results shown in Table I. • (Test 1) Human liver microsomal stability assay was conducted by incubating 0.5 uM test compounds at 37°C for up to 45 minutes in 50 mM of potassium phosphate buffer (pH 7.4) containing 0.5 mg of microsomal protein and 50 µL of NADPH generating system (7.8 mg of glucose 6-phosphate, 1.7 mg of NADPH and 6 U of glucose 6-phosphate dehydrogenase per mL in 2% w/v of sodium bicarbonate). At 0, 5, 15, 30 and 45 min., an aliquot was taken, quenched with internal standard containing stop solution. No co-factor controls at 45 minutes were also prepared. After incubation, the samples were analyzed by LC-MS/MS. Peak area ratios of analyte to internal standard were used to calculate the intrinsic clearance. The intrinsic clearance (CLint) was determined from the first order elimination constant by non-linear regression. Formation of the active drug Compound A over the time course was also monitored by LC-MS/MS analysis. • (Test 2) Human plasma stability assay was conducted by incubating 0.5 uM test compounds at 37°C for up to 120 minutes in heparinated human plasma. At 0, 5, 15, 30, 60 and 120 […] min., an aliquot was taken, quenched with internal standard containing stop solution. After incubation, the samples were analyzed by LC-MS/MS. Peak area ratios of analyte to internal standard were used to calculate the half-life. Formation of the active drug Compound A over the time course was also monitored by LC-MS/MS analysis. • (Test 3) Human skin homogenate stability assay was conducted in a similar way as the human liver microsomal stability assay, by incubating 0.5 uM test compounds at 37°C for up to 45 minutes in 50 mM of potassium phosphate buffer (pH 7.4) containing 0.5 mg of human skin homogenate protein and 50 µL of NADPH generating system (7.8 mg of glucose 6-phosphate, 1.7 mg of NADPH and 6 U of glucose 6-phosphate dehydrogenase per mL in 2% w/v of sodium bicarbonate). At 0, 5, 15, 30 and 45 min., an aliquot was taken, quenched with internal standard containing stop solution. No co-factor controls at 45 minutes were also prepared. After incubation, the samples were analyzed by LC-MS/MS. Peak area ratios of analyte to internal standard were used to calculate the intrinsic clearance. The intrinsic clearance (CLint) was determined from the first order elimination constant by non-linear regression. Formation of the active drug Compound A over the time course was also monitored by LC-MS/MS analysis. • (Test 4) Human hepatocyte stability assay was conducted by incubating 0.5 uM test compound at 37°C for up to 240 minutes. Cryopreserved human hepatocytes were obtained from Celsis IVT (Baltimore, Maryland). Cells were thawed according to vendor's instructions and were suspended in William's Medium E to 0.5 million cells/mL. Test compounds were spiked into the cell suspension to initiate the reactions. At 0, 10,30,60, 120 and 240 min., an aliquot was taken, quenched with internal standard containing stop solution. After incubation, the samples were analyzed by LC-MS/MS. Peak area ratios of analyte to internal standard were used to calculate the intrinsic clearance. The intrinsic clearance (CLint) was determined from the first order elimination constant by non-linear regression. Formation of the active drug Compound A over the time course was also monitored by LC-MS/MS analysis.

[2] = Human liver microsomal stability assay (Test 1); conditions: liver microsomes, 0.5 uM test compound, 37°C, up to 45 minutes, 0.5 mg microsomal protein, NADPH generating system, pH 7.4, read-out: Test 1 T1/2
Protocol: as §1

[3] = Human skin homogenate stability assay (Test 3); conditions: 0.5 uM test compound, 37°C, up to 45 minutes, 0.5 mg human skin homogenate protein, NADPH generating system, pH 7.4, read-out: Test 3 T1/2
Protocol: as §1

Row | half-life at 0.5 uM [1] [min] | half-life at 0.5 uM [2] [min] | half-life at 0.5 uM [3] [min] | SMILES
1 | < 15 | < 15 | – | CCCCCC(O)CCC1C(O)CC2Cc3c(cccc3OCC(=O)OCC3CC3)CC21 (stereo not shown) [Compound 1, [2-Hydroxy-1-(3-hydroxy-octyl)-2,3,3a,4,9,9a-hexahydro-1H-cyclopenta[b]naphthalen-5-yloxy]-acetic acid cyclopropylmethyl ester]
2 | < 15 | < 15 | – | CCCCCC(O)CCC1C(O)CC2Cc3c(cccc3OCC(=O)OCCCF)CC21 (stereo not shown) [Compound 4, [2-Hydroxy-1-(3-hydroxy-octyl)-2,3,3a,4,9,9a-hexahydro-1H-cyclopenta[b]naphthalen-5-yloxy]-acetic acid 3-fluoro-propyl ester]
3 | < 15 | < 15 | – | CCCCCC(O)CCC1C(O)CC2Cc3c(cccc3OCC(=O)OC3CCOC3)CC21 (stereo not shown) [Compound 5, [2-Hydroxy-1-(3-hydroxy-octyl)-2,3,3a,4,9,9a-hexahydro-1H-cyclopenta[b]naphthalen-5-yloxy]-acetic acid tetrahydro-furan-3-yl ester]
4 | – | 31 to 60 | – | CCCCCC(O)CCC1C(O)CC2Cc3c(cccc3OCC(=O)NCCN)CC21 (stereo not shown) [Compound 8, N-(2-Amino-ethyl)-2-[2-hydroxy-1-(3-hydroxy-octyl)-2,3,3a,4,9,9a-hexahydro-1H-cyclopenta[b]naphthalen-5-yloxy]-acetamide]
5 | – | < 15 | – | CCCCCC(O)CCC1C(O)CC2Cc3c(cccc3OCC(=O)OCCO)CC21 (stereo not shown) [Compound 9, [2-Hydroxy-1-(3-hydroxy-octyl)-2,3,3a,4,9,9a-hexahydro-1H-cyclopenta[b]naphthalen-5-yloxy]-acetic acid 2-hydroxy-ethyl ester]
6 | – | < 15 | – | CCCCCC(O)CCC1C(O)CC2Cc3c(cccc3OCC(=O)OCCOC)CC21 (stereo not shown) [Compound 10, [2-Hydroxy-1-(3-hydroxy-octyl)-2,3,3a,4,9,9a-hexahydro-1H-cyclopenta[b]naphthalen-5-yloxy]-acetic acid 2-methoxy-ethyl ester]
7 | > 60 | < 15 | – | CCCCCC(O)CCC1C(O)CC2Cc3c(cccc3OCC(=O)NCCCO)CC21 (stereo not shown) [Compound 11, 2-[2-Hydroxy-1-(3-hydroxy-octyl)-2,3,3a,4,9,9a-hexahydro-1H-cyclopenta[b]naphthalen-5-yloxy]-N-(3-hydroxy-propyl)-acetamide]
8 | > 60 | < 15 | – | CCCCCC(O)CCC1C(O)CC2Cc3c(cccc3OCC(=O)NCC(=O)OC)CC21 (stereo not shown) [Compound 12, {2-[2-Hydroxy-1-(3-hydroxy-octyl)-2,3,3a,4,9,9a-hexahydro-1H-cyclopenta[b]naphthalen-5-yloxy]-acetylamino}-acetic acid methyl ester]
9 | < 15 | < 15 | < 15 | CCCCCC(O)CCC1C(O)CC2Cc3c(cccc3OCC(=O)OC)CC21 (stereo not shown) [Compound 15, [2-Hydroxy-1-(3-hydroxy-octyl)-2,3,3a,4,9,9a-hexahydro-1H-cyclopenta[b]naphthalen-5-yloxy]-acetic acid methyl ester]
10 | 15 to 30 | < 15 | 15 to 30 | CCCCCC(O)CCC1C(O)CC2Cc3c(cccc3OCC(=O)OCC(C)(C)C)CC21 (stereo not shown) [Compound 16, [2-Hydroxy-1-(3-hydroxy-octyl)-2,3,3a,4,9,9a-hexahydro-1H-cyclopenta[b]naphthalen-5-yloxy]-acetic acid 2,2-dimethyl-propyl ester]
11 | 31 to 60 | < 15 | 15 to 30 | CCCCCC(O)CCC1C(O)CC2Cc3c(cccc3OCC(=O)OC(C)C(C)C)CC21 (stereo not shown) [Compound 17, [2-Hydroxy-1-(3-hydroxy-octyl)-2,3,3a,4,9,9a-hexahydro-1H-cyclopenta[b]naphthalen-5-yloxy]-acetic acid 1,2-dimethyl-propyl ester]
12 | > 60 | < 15 | > 60 | CCCCCC(O)CCC1C(O)CC2Cc3c(cccc3OCC(=O)OC(C)C(C)(C)C)CC21 (stereo not shown) [Compound 18, [2-Hydroxy-1-(3-hydroxy-octyl)-2,3,3a,4,9,9a-hexahydro-1H-cyclopenta[b]naphthalen-5-yloxy]-acetic acid 1,2,2-trimethyl-propyl ester]
13 | 31 to 60 | < 15 | 15 to 30 | CCCCCC(O)CCC1C(O)CC2Cc3c(cccc3OCC(=O)OC3CC4CCC3C4)CC21 (stereo not shown) [Compound 19, [2-Hydroxy-1-(3-hydroxy-octyl)-2,3,3a,4,9,9a-hexahydro-1H-cyclopenta[b]naphthalen-5-yloxy]-acetic acid bicyclo[2.2.1]hept-2-yl ester]
14 | 31 to 60 | < 15 | < 15 | CCCCCC(O)CCC1C(O)CC2Cc3c(cccc3OCC(=O)OC(C)C)CC21 (stereo not shown) [Compound 20, [2-Hydroxy-1-(3-hydroxy-octyl)-2,3,3a,4,9,9a-hexahydro-1H-cyclopenta[b]naphthalen-5-yloxy]-acetic acid isopropyl ester]
15 | > 60 | < 15 | – | CCCCCC(O)CCC1C(O)CC2Cc3c(cccc3OCC(=O)NCC(F)(F)C(F)(F)F)CC21 (stereo not shown) [Compound 21, 2-[2-Hydroxy-1-(3-hydroxy-octyl)-2,3,3a,4,9,9a-hexahydro-1H-cyclopenta[b]naphthalen-5-yloxy]-N-(2,2,3,3,3-pentafluoro-propyl)-acetamide]
16 | > 60 | < 15 | > 60 | CCCCCC(O)CCC1C(OC(=O)CCCC)CC2Cc3c(cccc3OCC(=O)OC)CC21 (stereo not shown) [Compound 22, Pentanoic acid 1-(3-hydroxy-octyl)-5-methoxycarbonylmethoxy-2,3,3a,4,9,9a-hexahydro-1H-cyclopenta[b]naphthalen-2-yl ester]
17 | > 60 | < 15 | – | CCCCCC(O)CCC1C(OC(=O)CC(C)C)CC2Cc3c(cccc3OCC(=O)OC)CC21 (stereo not shown) [Compound 23, 3-Methyl-butyric acid 1-(3-hydroxy-octyl)-5-methoxycarbonylmethoxy-2,3,3a,4,9,9a-hexahydro-1H-cyclopenta[b]naphthalen-2-yl ester]
18 | > 60 | < 15 | – | CCCCCC(O)CCC1C(OC(=O)C2CC2)CC2Cc3c(cccc3OCC(=O)OC)CC21 (stereo not shown) [Compound 24, Cyclopropanecarboxylic acid 1-(3-hydroxy-octyl)-5-methoxycarbonylmethoxy-2,3,3a,4,9,9a-hexahydro-1H-cyclopenta[b]naphthalen-2-yl ester]
19 | > 60 | < 15 | – | CCCCCC(O)CCC1C(OC(=O)CCC(=O)OCC)CC2Cc3c(cccc3OCC(=O)OC)CC21 (stereo not shown) [Compound 27, Succinic acid ethyl ester 1-(3-hydroxy-octyl)-5-methoxycarbonylmethoxy-2,3,3a,4,9,9a-hexahydro-1H-cyclopenta[b]naphthalen-2-yl ester]
20 | 15 to 30 | < 15 | – | CCCCCC(O)CCC1C(O)CC2Cc3c(cccc3OCC(=O)OC(C)(C)C)CC21 (stereo not shown) [Compound 28, [2-Hydroxy-1-(3-hydroxy-octyl)-2,3,3a,4,9,9a-hexahydro-1H-cyclopenta[b]naphthalen-5-yloxy]-acetic acid tert-butyl ester]

Row | SMILES | half-life at 0.5 uM [1] [min] | half-life at 0.5 uM [2] [min] | half-life at 0.5 uM [3] [min]
21 | CCCCCC(O)CCC1C(O)CC2Cc3c(cccc3OCC(=O)OC(C)C(=O)OC)CC21 (stereo not shown) [Compound 6, 2-{2-[2-Hydroxy-1-(3-hydroxy-octyl)-2,3,3a,4,9,9a-hexahydro-1H-cyclopenta[b]naphthalen-5-yloxy]-acetoxy}-propionic acid methyl ester] | < 15 | < 15 | –
